Experimental findings from ChEMBL document CHEMBL1155703, “Sequences and antimycoplasmic properties of longibrachins LGB II and LGB III, two novel 20-residue peptaibols from Trichoderma longibrachiatum” (J Nat Prod, 2001) are described below.

Data set [1] in a line: Bilayer membrane permeabilization assessed as lipid to peptide ratio allowing 50% leakage of entrapped carboxyfluorescein from egg phosphatidylcholine-cholesterol liposomes at 0.49 uM at 20 mins by spectrofluorimetry. The class given is physicochemical.
Data set [2] in a line: Bilayer membrane permeabilization assessed as lipid to peptide ratio allowing 50% leakage of entrapped carboxyfluorescein from egg phosphatidylcholine-cholesterol liposomes at 0.40 uM at 20 mins by spectrofluorimetry. The class given is physicochemical. The note with it: 0.4 µM.
Another data set has as its system Acholeplasma laidlawii. Kind of data set: Antimicrobial activity against Acholeplasma laidlawii PG-8A after 2 hrs. The format is functional.
For data set [3], the system named is Mycoplasmoides gallisepticum. Put plainly: Antimicrobial activity against Mycoplasma gallisepticum S6 after 2 hrs. The format is functional.
For data set [4], the system named is Mycoplasma mycoides subsp. mycoides SC. Kind of data set: Antimicrobial activity against Mycoplasma mycoides subsp. mycoides SC KH3J after 2 hrs. The class given is functional.
A further data set deals with Spiroplasma apis. Kind of data set: Antimicrobial activity against Spiroplasma apis B31 after 2 hrs. The format is functional.
For a further data set, the system named is Spiroplasma citri. Put plainly: Antimicrobial activity against Spiroplasma citri R8A2 after 2 hrs. The class given is functional. The note with it: R8A2, 2 h.
The next data set deals with Spiroplasma floricola. Kind of data set: Antimicrobial activity against Spiroplasma floricola BNR1 after 2 hrs. The class given is functional.
The nature of data set [5]: Bilayer membrane permeabilization assessed as lipid to peptide ratio allowing 50% leakage of entrapped carboxyfluorescein from egg phosphatidylcholine-cholesterol liposomes at 0.13 uM at 20 mins by spectrofluorimetry. The format is physicochemical.
Data set [6] in a line: Bilayer membrane permeabilization assessed as lipid to peptide ratio allowing 50% leakage of entrapped carboxyfluorescein from egg phosphatidylcholine-cholesterol liposomes at 1.36 uM at 20 mins by spectrofluorimetry. The format is physicochemical.

SMILES strings stand for the structures. ≈ marks a conversion by molar mass, not a printed value. Square brackets hold non-standard residues; d marks the D form. Peptide text beside a SMILES is read from it. * marks the point of attachment. X2 = OC[C@H](Cc1c[nH]c2ccccc12)N*; Aib = CC(C)(N)C(=O)O

Consider `CC[C@@](C)(NC(=O)C(C)(C)NC(=O)[C@H](C)NC(=O)[C@H](CO)NC(=O)C(C)(C)NC(C)=O)C(=O)N[C@@H](CCC(N)=O)C(=O)NC(C)(C)C(=O)N[C@H](C(=O)NC(C)(C)C(=O)NCC(=O)N[C@@H](CC(C)C)C(=O)NC(C)(C)C(=O)N1CCC[C@H]1C(=O)N[C@@H](CC(C)C)C(=O)NC(C)(C)C(=O)NC(C)(C)C(=O)N[C@@H](CCC(N)=O)C(=O)N[C@H](CO)Cc1ccccc1)C(C)C`, for which the Ratio in data set [1] came to 1220.

Turning to `CC[C@@](C)(NC(=O)C(C)(C)NC(=O)[C@@H](NC(=O)[C@@H]1CCCN1C(=O)C(C)(C)NC(=O)C(C)(C)NC(=O)CNC(=O)C(C)(C)NC(=O)C(C)(C)NC(=O)[C@H](CC(C)C)NC(=O)C(C)(C)NC(=O)[C@H](CCC(N)=O)NC(=O)C(C)(C)NC(=O)[C@H](C)NC(=O)C(C)(C)NC(=O)[C@H](C)NC(=O)C(C)(C)NC(C)=O)C(C)C)C(=O)N[C@@H](CCC(N)=O)C(=O)N[C@@H](CCC(N)=O)C(=O)N[C@H](CO)Cc1ccccc1`, the Ratio in [2] is 1000.

`CC[C@@](C)(NC(=O)C(C)(C)NC(=O)[C@@H](NC(=O)[C@@H]1CCCN1C(=O)C(C)(C)NC(=O)[C@H](CC(C)C)NC(=O)CNC(=O)C(C)(C)NC(=O)[C@@H](NC(=O)C(C)(C)NC(=O)[C@H](CCC(N)=O)NC(=O)C(C)(C)NC(=O)C(C)(C)NC(=O)[C@H](C)NC(=O)C(C)(C)NC(=O)[C@H](C)NC(=O)C(C)(C)NC(C)=O)C(C)C)C(C)C)C(=O)N[C@@H](CCC(N)=O)C(=O)N[C@@H](CCC(N)=O)C(=O)N[C@H](CO)Cc1ccccc1`: the MLC (in the data set on Acholeplasma laidlawii; in data set [3]; in the data set with Spiroplasma apis; in the data set with Spiroplasma floricola) was 3.12 µM (≈ 6.13 µg/mL) each time. The MIC – broadly, the lowest concentration that inhibits growth of the organism – against Acholeplasma laidlawii (Acholeplasma laidlawii, PG-8A, 2 h) was determined as 0.78 µM (≈ 1.53 µg/mL); in data set [3] (Mycoplasmoides gallisepticum, S6, 2 h) it was 6.25 µM (≈ 12.3 µg/mL); in [4], 6.25 µM (≈ 12.3 µg/mL); against Spiroplasma apis (Spiroplasma apis, B31, 2 h), 6.25 µM (≈ 12.3 µg/mL); against Spiroplasma citri it was 3.12 µM (≈ 6.13 µg/mL); with Spiroplasma floricola (Spiroplasma floricola, BNR1, 2 h), 6.25 µM (≈ 12.3 µg/mL). Moreover, the Ratio in data set [5] is given as 4545.

Consider `CC[C@H](C)[C@H](NC(=O)C(C)(C)NC(=O)[C@@H](NC(=O)[C@@H]1CCCN1C(=O)C(C)(C)NC(=O)[C@H](CC(C)C)NC(=O)[C@H](CO)NC(=O)C(C)(C)NC(=O)C(C)(C)NC(=O)C(C)(C)NC(=O)[C@H](CCC(N)=O)NC(=O)C(C)(C)NC(=O)C(C)(C)NC(=O)[C@H](C)NC(=O)[C@H](C)NC(=O)C(C)(C)NC(C)=O)C(C)C)C(=O)N[C@@H](CCC(N)=O)C(=O)N[C@@H](CCC(=O)O)C(=O)N[C@H](CO)Cc1c[nH]c2ccccc12` (Ac-[Aib]AA[Aib][Aib]Q[Aib][Aib][Aib]SL[Aib]PV[Aib]IQE-X2), for which the Ratio in data set [6] was 295.
